# Experimental data from BindingDB's records for doi:10.1016/j.bmcl.2010.10.020 (Incyte, 2010).
# Experiments:
# [1] = Antagonist activity at mouse CCR2 assessed as inhibition of MCP1 induced chemotaxis after 30 mins
# [2] = Antagonist activity at human CCR2 assessed as inhibition of MCP1 induced chemotaxis after 30 mins
SMILES,IC50 [1],IC50 [2]
"CCO[C@H]1CN([C@H]2CC[C@@](O)(c3ccc(C)cc3)CC2)C[C@@H]1NC(=O)CNC(=O)c1cccc(C(F)(F)F)c1 [N-(2-((3S,4S)-4-ethoxy-1-(cis-4-hydroxy-4-p-tolylcyclohexyl)pyrrolidin-3-ylamino)-2-oxoethyl)-3-(trifluoromethyl)benzamide]",13 nM,1.4 nM
"O=C(CNC(=O)c1cccc(C(F)(F)F)c1)N[C@H]1CN([C@H]2CC[C@@H](c3ccccc3)CC2)C[C@@H]1O [N-(2-((3S,4S)-4-hydroxy-1-(cis-4-phenylcyclohexyl)pyrrolidin-3-ylamino)-2-oxoethyl)-3-(trifluoromethyl)benzamide]",265 nM,12 nM
"CCO[C@H]1CN([C@H]2CC[C@@H](c3ccccc3)CC2)C[C@@H]1NC(=O)CNC(=O)c1cccc(C(F)(F)F)c1 [N-(2-((3S,4S)-4-ethoxy-1-(cis-4-phenylcyclohexyl)pyrrolidin-3-ylamino)-2-oxoethyl)-3-(trifluoromethyl)benzamide]",14 nM,6.5 nM
"CCCO[C@H]1CN([C@H]2CC[C@@H](c3ccccc3)CC2)C[C@@H]1NC(=O)CNC(=O)c1cccc(C(F)(F)F)c1 [N-(2-oxo-2-((3S,4S)-1-(cis-4-phenylcyclohexyl)-4-propoxypyrrolidin-3-ylamino)ethyl)-3-(trifluoromethyl)benzamide]",158 nM,1.8 nM
"CCO[C@H]1CN([C@H]2CC[C@@](O)(c3ccccc3)CC2)C[C@@H]1NC(=O)CNC(=O)c1cccc(C(F)(F)F)c1 [N-(2-((3S,4S)-4-ethoxy-1-(cis-4-hydroxy-4-phenylcyclohexyl)pyrrolidin-3-ylamino)-2-oxoethyl)-3-(trifluoromethyl)benzamide]",444 nM,3 nM
